In PubChem BioAssay (NCI):
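Cultured in 96-well plates, cells were exposed to test compound for 48 hours across five concentrations. At the GI50, growth is halved. TGI is the concentration that stops growth completely.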

Key:
Experiment in all cases: DTP human tumour cell line panel, 48 h
[1] = test system: RXF 393 renal
[2] = test system: EKVX NSCLC
[3] = test system: M14 melanoma
[4] = test system: MOLT-4 leukemia
[5] = test system: DU-145 prostate
[6] = test system: OVCAR-5 ovarian
[7] = test system: SK-OV-3 ovarian
[8] = test system: HT29 colon
[9] = test system: SK-MEL-5 melanoma
[10] = test system: NCI-H522 lung
[11] = test system: TK-10 renal
[12] = test system: OVCAR-3 ovarian
[13] = test system: RPMI-8226 leukemia
[14] = test system: SF-295 CNS
[15] = test system: PC-3 prostate
[16] = test system: UACC-257 melanoma

| SMILES | TGI [1] [µM] | TGI [2] [µM] | TGI [3] [µM] | TGI [4] [µM] | TGI [5] [µM] | TGI [6] [µM] | TGI [7] [µM] | TGI [8] [µM] | TGI [9] [µM] | TGI [10] [µM] | TGI [11] [µM] | TGI [12] [µM] | TGI [13] [µM] | TGI [14] [µM] | TGI [15] [µM] | TGI [16] [µM] | GI50 [5] [µM] | GI50 [12] [µM] |
| --- | --- | --- | --- | --- | --- | --- | --- | --- | --- | --- | --- | --- | --- | --- | --- | --- | --- | --- |
| CCCC(=O)OC[n+]1cccc(-c2c(COC(=O)NC(C)C)c(COC(=O)NC(C)C)c3n2CCC3)c1 | > 56.7 | > 100 | > 100 | > 83.3 | > 100 | > 100 | > 100 | > 100 | > 100 | 71.8 | > 100 | > 100 | > 100 | > 100 | > 100 | > 100 |  |  |
| N#CC(C#N)=C(N)/C(C#N)=C/c1cc(O)c(O)c(Br)c1 | > 100 | > 100 | > 100 | > 100 | > 100 | > 100 | > 100 | > 100 | > 100 | > 100 | > 100 | 93.6 | > 100 | > 100 | > 100 | > 100 |  |  |
| O=c1cc(-c2ccccc2)oc2ccc(Oc3nnnn3-c3ccccc3)cc12 | > 76.1 | > 100 | > 100 | > 100 | > 100 | > 100 | > 100 | > 100 | > 100 | > 100 | > 100 | > 100 | > 100 | > 79.9 | > 100 | > 100 |  |  |
| CCN1CC2=C(NC(=S)NC2c2cc(OC)c(OC)c(OC)c2)/C(=C/c2cc(OC)c(OC)c(OC)c2)C1 (configuration not stated) | > 100 | > 100 | > 100 | > 100 | > 100 | > 100 | > 100 | > 100 | 40.1 | 55.9 | > 100 | > 100 | 42.9 | > 100 | > 100 | > 100 |  |  |
| CC(=O)Nc1cc2c(cc1O)CC[C@@H]1[C@@H]2CC[C@]2(C)[C@@H](O)CC[C@@H]12 | > 100 | > 100 | > 100 | > 100 | > 100 | > 100 | > 100 | > 100 | 59.8 | 81.5 | > 100 | > 100 | > 100 | > 100 | > 100 | > 100 | > 100 | 9.2 |
| COc1cc2c(cc1OC)C1(c3ccccc3)CN(C2)Cc2cc(OC)c(OC)cc21 | 60.3 | > 100 | 59.6 | 84.7 | > 100 | > 100 | > 100 | > 100 | 53.3 | > 100 | > 100 | > 100 | 80.2 | > 100 | > 100 | > 100 |  |  |
| Cc1nc2ccccc2c(=O)n1NC(=O)c1ccccc1O | > 100 | > 100 | > 100 | > 100 | > 100 | > 100 | > 100 | > 100 | > 100 | > 100 | > 100 | > 100 | > 100 | > 100 | > 100 | > 100 |  |  |
| CN(C)C=Nc1cccc2cnccc12 | > 100 | > 100 | > 100 | > 100 | > 100 | > 100 | > 100 | > 100 | > 100 | > 100 | > 100 | > 100 | > 100 | > 100 | > 100 | > 100 |  |  |
| Cc1c(CCCl)c(N=[N+]=[N-])n2c(nc3ccccc32)c1C#N | 2.85 | 4.4 | 2.77 | 1.12 | 6.3 | 4.73 | 5.07 | 4.52 | 1.35 | 0.44 | 3.02 | 3.15 | 2.33 | 3.54 | 2.72 | 3.53 |  |  |
| CC1=CCC[C@@H]2[C@@](C)(Cc3cc(O)ccc3O)[C@H](C)CC[C@@]12C | 17.1 | 20.3 | 15.7 | 15 | 27.1 | 28.3 | 26 | 42.7 | 19.1 | 14.1 | 22.2 | 15.3 | 21.7 | 20 | 14.1 | 26.2 |  |  |
